Eleven compounds from PubChem BioAssay (NCI) can be followed below.

Test systems include MCF7 breast; PC-3 prostate; MDA-MB-231 breast; BT-549 breast; OVCAR-4 ovarian; P388/ADR leukemia; NCI-H522 lung; DMS 114 small cell lung; XF 498 CNS; P388 leukemia; HOP-18 NSCLC; SN12K1 renal; LXFL 529 NSCLC.
Holding throughout (experiment): NCI tumour cell line growth inhibition, 48 h

Where “and” joins values, the source holds several entries; their conditions need not be identical. Equal entries are not always repeated.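 These data come from cells grown in 96-well plates and exposed to compound for 48 hours at five concentrations. GI50 = concentration required for 50% inhibition of growth. TGI denotes the concentration required for complete inhibition of growth.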 Where only a bound is given, the exact number is not on record here.

Turning to `COc1cc(C(=O)C2CC3(CCC2(O)c2cc(OC)c(OC)c(OC)c2)CC(=O)Nc2ccccc2C3=O)cc(OC)c1OC` (centres undefined), the TGI is above 100 µM in the experiment with MCF7 breast; above 100 µM with PC-3 prostate; above 100 µM in the experiment with MDA-MB-231 breast; above 100 µM in the experiment with BT-549 breast; 57.5 µM with OVCAR-4 ovarian.
On to `Cc1c(C2=NN=C(N=Nc3c(O)cccc3O)/C2=C/c2ccccc2)c(=O)n(-c2ccccc2)n1C`, for which the TGI in the experiment on MCF7 breast, with P388/ADR leukemia, in the experiment with NCI-H522 lung, in the experiment with OVCAR-4 ovarian, in the experiment on DMS 114 small cell lung and with XF 498 CNS was above 100 µM each time. The TGI in the experiment with P388 leukemia, with HOP-18 NSCLC and with SN12K1 renal was above 100 µM each time.
As for `Nc1n[nH]c(CCCCCCCc2nc(N)n[nH]2)n1`, the TGI in the experiment with NCI-H522 lung, in the experiment on OVCAR-4 ovarian, in the experiment with DMS 114 small cell lung and in the experiment with LXFL 529 NSCLC was above 100 µM throughout.
Take `CC(C)=CCC/C(C)=C/CCC1(C)C=Cc2c(c3ccccc3oc2=O)O1` (centres undefined): the TGI is 30.5 µM in the experiment on MCF7 breast; above 62.6 µM with P388/ADR leukemia; 29.3 µM in the experiment on NCI-H522 lung; 28.4 µM with OVCAR-4 ovarian; 29.8 µM with DMS 114 small cell lung; 29.4 µM in the experiment with XF 498 CNS. The figures for the TGI in the experiment with P388 leukemia, in the experiment with HOP-18 NSCLC and in the experiment with SN12K1 renal were 52.6 µM, 32.6 µM and 30.7 µM, respectively.
Turning to `CC1SC(c2ccc(Cl)cc2)N(CCc2cccs2)C1=O` (centres undefined), the GI50 with MCF7 breast was 2.11 µM; in the experiment on PC-3 prostate, 1.75 µM; in the experiment with MDA-MB-231 breast, 1.55 µM; in the experiment with NCI-H522 lung, 1.34 µM; in the experiment on BT-549 breast it was 1.49 µM; with OVCAR-4 ovarian it was 1190 nM. The TGI in the experiment with MCF7 breast came to 6.23 µM; in the experiment on PC-3 prostate it was 5.07 µM; in the experiment with MDA-MB-231 breast it was 3.28 µM; in the experiment on NCI-H522 lung, 2.75 µM; in the experiment with BT-549 breast it was 2.81 µM; in the experiment with OVCAR-4 ovarian, 2.44 µM.
Consider `O=C(O)CCCc1ccccc1`, for which the GI50 with MCF7 breast was 160 µM and > 1000 µM; with PC-3 prostate, 364 µM and > 1000 µM; in the experiment with MDA-MB-231 breast, 338 µM and > 1000 µM; with NCI-H522 lung it was above 1000 µM; with BT-549 breast, 242 µM and > 1000 µM. The TGI was above 1000 µM with MCF7 breast; above 1000 µM in the experiment with PC-3 prostate; above 1000 µM in the experiment with MDA-MB-231 breast; 634 µM and > 1000 µM in the experiment with NCI-H522 lung; above 1000 µM in the experiment on BT-549 breast; 184 µM and > 1000 µM in the experiment on OVCAR-4 ovarian.
As for `COCCOCOC(C)(C)[C@H](CCO)O[Si](c1ccccc1)(c1ccccc1)C(C)(C)C`, the TGI with NCI-H522 lung is 15.4 µM; in the experiment with XF 498 CNS, 13.5 µM; in the experiment with HOP-18 NSCLC, 31.9 µM; in the experiment with LXFL 529 NSCLC, 21.6 µM.
As to `O=C(O)C12CC3CC(C1)C2C=C3P(=O)(O)O` (centres undefined), the TGI in the experiment on NCI-H522 lung, in the experiment on OVCAR-4 ovarian, in the experiment on DMS 114 small cell lung and in the experiment with LXFL 529 NSCLC was above 100 µM in each case.
For the compound `O=C1c2ccccc2C(=O)c2c1cc1c(c2[N+](=O)[O-])OCO1`, the GI50 in the experiment with MCF7 breast is 1 µM; in the experiment with PC-3 prostate it was 1.29 µM; in the experiment on MDA-MB-231 breast, 1.45 µM; with NCI-H522 lung it was 2.01 µM; in the experiment with OVCAR-4 ovarian it was 1200 nM. Besides, the TGI in the experiment with MCF7 breast is 7.29 µM; in the experiment on PC-3 prostate it was 4.66 µM; with MDA-MB-231 breast, 6.79 µM; with NCI-H522 lung it was 4.68 µM; in the experiment on OVCAR-4 ovarian it was 4.85 µM.
As to `c1ccc2cc3c(cc2c1)OP1(Oc2cccc4cccnc24)(O3)Oc2cc3ccccc3cc2O1`, the TGI was above 100 µM in the experiment on MCF7 breast; 6.73 µM in the experiment on P388/ADR leukemia; 35.4 µM in the experiment with NCI-H522 lung; 11.8 µM in the experiment on OVCAR-4 ovarian; above 23 µM with DMS 114 small cell lung; 9.98 µM in the experiment on XF 498 CNS. For the same compound, the TGI with P388 leukemia stood at 4.57 µM; with HOP-18 NSCLC it was 56.3 µM; in the experiment on SN12K1 renal, 20.5 µM.
On to `COc1cc(/C=C/C2=C(C#N)C(=O)OC2(C)C)ccc1O`, for which the TGI in the experiment with NCI-H522 lung is 44.4 µM; in the experiment with HOP-18 NSCLC, above 100 µM.
